Experimental data reported in paper PMC5762535, “Novel indazole-based small compounds enhance TRAIL-induced apoptosis by inhibiting the MKK7-TIPRL interaction in hepatocellular carcinoma” (Oncotarget, 2017).
Like-named read-outs stand apart in the source and are kept apart here. Values belong to the molecule of their own block, whether it stands above or below them.

Assays:
[1] = biological target: T1, MKK7-TIPRL interaction (Homo sapiens, UniProt O14733+O75663); test: ELISA of the MKK7-TIPRL interaction; type: binding; design: The full-length cDNAs of human TIPRL and MKK7 were provided by the Korea Human Gene Bank; His; made in house
T1 sequence (O14733 1-419): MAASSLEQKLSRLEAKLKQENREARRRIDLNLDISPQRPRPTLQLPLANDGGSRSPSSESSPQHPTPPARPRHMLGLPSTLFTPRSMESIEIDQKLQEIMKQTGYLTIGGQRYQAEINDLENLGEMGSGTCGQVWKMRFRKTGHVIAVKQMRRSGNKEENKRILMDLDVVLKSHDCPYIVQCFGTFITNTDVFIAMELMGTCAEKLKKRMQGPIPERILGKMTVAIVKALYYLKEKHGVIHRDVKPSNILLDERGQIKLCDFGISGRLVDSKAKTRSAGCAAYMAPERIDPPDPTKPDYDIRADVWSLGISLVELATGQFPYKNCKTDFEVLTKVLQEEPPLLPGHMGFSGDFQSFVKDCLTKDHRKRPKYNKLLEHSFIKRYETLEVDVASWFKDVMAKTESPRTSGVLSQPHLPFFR
T1 sequence (O75663 1-272): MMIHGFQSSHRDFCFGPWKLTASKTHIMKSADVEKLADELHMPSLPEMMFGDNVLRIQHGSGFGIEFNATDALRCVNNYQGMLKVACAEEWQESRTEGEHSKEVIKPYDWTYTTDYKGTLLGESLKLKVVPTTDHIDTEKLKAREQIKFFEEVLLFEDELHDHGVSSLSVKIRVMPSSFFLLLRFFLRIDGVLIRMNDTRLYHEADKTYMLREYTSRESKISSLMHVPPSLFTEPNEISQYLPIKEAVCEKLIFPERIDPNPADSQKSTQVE
From the text: The full-length cDNAs of human TIPRL and MKK7 were provided by the Korea Human Gene Bank (Korea Research Institute of Biosciences and Biotechnology, South Korea). TIPRL and MKK7 were subcloned into the pET21a vector (purchased from Novagen, San Diego, CA) and the pEBG vector containing a GST tag (kindly provided by Y. Liu, National Institute on Aging, National Institutes of Health) to construct the His-tagged and the GST-tagged plasmids, respectively. Purified TIPRL was conjugated with horseradish peroxidase (HRP). To screen chemical compounds using HTS, an ELISA system that detected the TIPRL and MKK7 interaction was constructed. Briefly, 96-well ELISA plates were coated with GST-MKK7 dissolved in PBS-T buffer (PBS containing 0.05% Tween-20 and 0.5% BSA), followed by the addition of 100 μl of TIPRL-HRP dissolved in PBS-T buffer. After 1 h, 100 μl of tetramethylbenzidine (TMB) solution was added to each well and the absorbance was read at 450 nm.

[2] = MTT cell viability assay, Huh7 cells; type: cell-based, human; conditions: human, Huh7 cells, without TRAIL; for viability: MTT, Supplementary Table 2, read-out: Cell viability assay (%) Compound only
Protocol: (§1) Cell viability was assessed using a 3-(4,5-dimethylthiazol-2-yl)-2,5-diphenyltetrazolium bromide (MTT, Sigma-Aldrich, St. Louis, USA) assay. The cells were seeded at a density of 1 × 10^4 cells per well and treated with the lead compounds and/or TRAIL. After 24 or 48 h, MTT (2 mg/ml) was added to each well, and the absorbance was measured using a microplate reader (Bio-Rad, Hercules, USA) at 570 nm. The cell viability was calculated as the percentage of viable cells in the drug-treated group versus the untreated control using the following equation: cell viability (%) = [OD (drug)-OD (blank)]/[OD (control)-OD (blank)] × 100.

[3] = system: caspase-3; test: Caspase 3 activity assay in Huh7 cells; type: cell-based, human; conditions: for Caspase 3 activity Compound + TRAIL/Compound: each compound at its working concentration and time of the table
Protocol: The caspase 3 activity was measured using a caspase-3 luminescent assay kit (Promega, Madison, WI, USA), according to the manufacturer's instructions, and a luminescence plate reader (Molecular Devices Co., Sunnyvale, USA).

[4] = system: Huh7 cells; test: MTT cell viability assay, Huh7 cells; type: cell-based, human; conditions: for effect on cell viability / cell death of Huh7 cells in the presence of TRAIL: MTT, co-treatment with TRAIL
Protocol: as §1

[5] = system: caspase-3 and PARP; test: Western blot of cleaved caspase-3 and PARP in Huh7 cells; type: cell-based, human; conditions: lead compounds co-treated with TRAIL 100 ng/ml, TRAIL tested alone
Protocol: The cells were lysed in lysis buffer (50 mM Tris-HCl, pH 7.4, 150 mM NaCl, 1% Triton™ X-100, 0.1% SDS, 1 mM EDTA, 1 mM Na3VO4, 1 mM NaF, and protease inhibitor cocktail) and clarified by centrifugation at 14,000×g for 20 min at 4°C. The protein samples were then subjected to Western blotting with the indicated antibodies.

[6] = Pharmacokinetics in rats; type: in vivo, Sprague-Dawley rats; conditions: rat; for AUC: male, Sprague-Dawley, plasma, after 24 h
Protocol: Male Sprague-Dawley rats anesthetized with ketamine were cannulated with polyethylene tubing in the femoral vein. A solution of lead compound (TRT-0029 or TRT-0173) was prepared by dissolving the compounds in a mixture of dimethyl sulfoxide (DMSO)/ polyethylene glycol 400 (PEG 400)/ distilled water (0.5: 4: 5.5), and was administered to rats by a bolus injection in the femoral vein. Blood samples were collected via the femoral vein 0, 2, 10, and 30 min, as well as 1, 2, 4, 6, 8, and 24 h after intravenous administration. For oral administration, blood was collected 0.25, 0.5, 1, 2, 4, 6, 8, and 24 h after treatment. The plasma fractions were prepared by centrifugation and were stored at −70°C before the liquid chromatography-tandem mass spectrometry (LC/MS/MS) analysis. The concentrations of target compound in the plasma were measured using LC-MS/MS (4000 QTRAP, AB SCIEX, Foster City, CA) in multiple reaction monitoring (MRM) mode. The PK parameters were determined with non-compartmental methods using Phoenix WinNolin (Pharsight, Mountain View, CA). The area under the plasma concentration-time curve (AUC) was calculated using the trapezoidal rule extrapolated to infinity. The terminal elimination half-life (t1/2), and the systemic clearance (CL) were obtained. The peak plasma concentration (Cmax) after oral administration was obtained by visual inspection of the plasma concentration-time plot of each rat.

[7] = system: HepG2 cells; test: MTT cell viability assay, HepG2 cells; type: cell-based, human; conditions: 10 µM TRT-0029 or 20 µM TRT-0173 plus TRAIL 100 ng/ml, 24 h
Protocol: as §1

[8] = biological target: T1, MKK7-TIPRL interaction; test: GST pull-down assay of MKK7-TIPRL in 293T cells; type: cell-based; conditions: 10 μM TRT-0029 or 20 μM TRT-0173, 24 h
Protocol: The full-length cDNAs of human TIPRL and MKK7 were subcloned into the pCGN vector (W. Herr, Cold Spring Harbor Laboratory) and the pEBG vector containing a GST tag to construct the HA-tagged and the GST-tagged plasmids, respectively. 293T cells were transfected with expression vector constructs using the TurboFect Transfection Reagent (Thermo Fisher Scientific, Lafayette, USA) and then were lysed in RIPA buffer (50 mM Tris-HCl, 150 mM NaCl, 1% Triton™ X-100, 0.1% SDS, 1 mM EDTA, 1 mM Na3VO4, and 1 mM NaF) containing complete protease inhibitor cocktail (Roche Applied Science, Indianapolis, USA). Whole-cell extracts were incubated with Glutathione Sepharose 4B (GE Healthcare, Uppsala, Sweden), and the eluted GST-tagged proteins were subjected to Western blotting using the indicated antibodies.

[9] = system: Huh7 tumor xenografts; test: In vivo Huh7 xenograft assay; design: species or system BALB/c nude mice
From the text: Five-week-old female BALB/c nude mice were purchased from SLC Japan and were maintained in accordance with the guidelines of the Institutional Review Committee for Animal Care and Use of the Korea Research Institute of Bioscience and Biotechnology. Protocol approval was obtained from the same committee.
Huh7 cells were harvested and subcutaneously injected (5 × 10^6 cells/mouse) into nude mice (N = 6/group for TRT-0173 or TRT-0029 experiments). When the tumor volume reached ~100 mm^3, the mice were divided into four groups and treated with vehicle, TRAIL (2.5 mg/kg, intraperitoneal), lead compound (TRT-0029 or TRT-0173, 30 mg/kg, intravenously), or lead compound (30 mg/kg, intravenously) combined with TRAIL (2.5 mg/kg, intraperitoneal) daily for 11 days (11 treatments in total). The tumor volumes were measured every 2 days for 11 days after treatment, and tumor volume was calculated according to the following equation: V (mm^3) = width^2 (mm^2) × length (mm)/2. Body weight and tumor mass were measured 11 days after treatment.

[10] = hit compounds from the in-house library, Supplementary Table 2, read-out: ELISA IC50

Molecule: CC(=O)c1cc(-n2ncc3cc(NS(=O)(=O)c4ccccc4)ccc32)c(Cl)cc1Cl [Compound 3]
- IC50 [1, 10]: 1.7 µM
- viability [2]: 42%

Molecule: COc1ccc(S(=O)(=O)Nc2ccc3c(cnn3-c3ccc(F)cc3)c2)cc1 [Compound 4]
- IC50 [1, 10]: 0.089 µM
- viability [2]: 86%

Molecule: Nc1ccc2[nH]ncc2c1 [Compound 5]
- IC50 [1, 10]: 1.4 µM
- viability [2]: 81%

Molecule: O=Cc1cc([N+](=O)[O-])ccc1F [Compound 6]
- IC50 [1, 10]: 2 µM
- viability [2]: 93%

Molecule: O=[N+]([O-])c1ccc(F)c(/C=N/Nc2ccc(F)cc2)c1 [Compound 7]
- IC50 [1, 10]: 8.9 µM
- viability [2]: 89%

B1: TRAIL: human TRAIL protein, member of the TNF superfamily, used as co-treatment (protein, UniProt P50591 1-281, looked up)
Tumor necrosis factor ligand …: MAMMEVQGGPSLGQTCVLIVIFTVLLQSLCVAVTYVYFTNELKQMQDKYSKSGIACFLKEDDSYWDPNDEESMNSPCWQVKWQLRQLVRKMILRTSEETISTVQEKQQNISPLVRERGPQRVAAHITGTRGRSNTLSSPNSKNEKALGRKINSWESSRSGHSFLSNLHLRNGELVIHEKGFYYIYSQTYFRFQEEIKENTKNDKQMVQYIYKYTSYPDPILLMKSARNSCWSKDAEYGLYSIYQGGIFELKENDRIFVSVTNEHLIDMDHEASFFGAFLVG
- apoptosis signals (cleaved caspase-3, PARP) by Western blotting [5]: did not activate caspase-3
- anti-cancer effects of TRAIL alone in vivo ([9]; 5 and 2.5 mg/kg, data not shown): dose-dependent anti-cancer effects
- reduction of average tumor mass, TRAIL alone ([9]; TRAIL 2.5 mg/kg i.p. daily for 11 days): 24.8%

The next lines start with results.

- IC50 [1, 10]: 2.8 µM
Molecule: O=[N+]([O-])c1ccc2c(cnn2-c2ccc(F)cc2)c1 [Compound 8]
- viability [2]: 69%

- IC50 [1, 10]: 1 µM
Molecule: Nc1ccc2c(cnn2-c2ccc(F)cc2)c1 [Compound 9]
- viability [2]: 90%

- IC50 [1, 10]: 3.5 µM
Molecule: CC(=O)c1cc(-n2cc3cc(N)ccc3n2)c(Cl)cc1Cl [Compound 10]
- viability [2]: 111%

- IC50 [1, 10]: 1 µM
- IC50 ([1]; newly synthesized TRT-0002, ELISA, read-out: IC50 to inhibit the MKK7-TIPRL interaction): 1.4 µM
Molecule: CC(=O)c1cc(-n2ncc3cc(N)ccc32)c(Cl)cc1Cl [TRT-0002]
- Caspase 3 activity Compound + TRAIL/Compound [3]: 1.80 ratio
- viability at 48 h, 40 µM ([2]; Huh7, MTT, 40 µM, 48 hrs, Supplementary Table 3, read-out: Cell viability assay Compound only): 81%
- viability [2]: 80%
- viability at 40 µM ([4]; Homo sapiens, Huh-7, Huh7, MTT, 40 µM, 48 hrs, with TRAIL, Supplementary Table 3, read-out: Cell viability assay Compound + TRAIL): 29%
- effect on cell viability / cell death of Huh7 cells in the presence of TRAIL [4]: significantly enhanced TRAIL-induced cell death
- effect on cell viability / cell death of Huh7 cells in the presence of TRAIL ([4]; listed as 16): synergetic effect

- AUC ([6]; iv, i.v. 5 mg/kg, read-out: AUC (i.v.)): 10000 ng·h/mL
- AUC ([6]; po, p.o. 5 mg/kg, read-out: AUC (p.o.)): 1220 ng·h/mL
- oral availability ([6]; 5 mg/kg i.v. and p.o.): 11%
- interaction between MKK7 and TIPRL in GST pull-down assay, compared with untreated cells [8]: significantly decreased the interaction
Molecule: CC(=O)c1cc(-n2ncc3cc(NS(=O)(=O)c4ccccc4)ccc32)c(Cl)cc1Cl [TRT-0029]
- apoptosis signals (cleaved caspase-3, PARP) by Western blotting [5]: effectively activated apoptosis signals
- activity of caspase-3, co-treatment with TRAIL compared to compound alone or TRAIL alone ([3]; Huh7, 24 h): significantly increased
- Caspase 3 activity Compound + TRAIL/Compound [3]: 2.20 ratio
- decrease of HepG2 viability by co-treatment with TRAIL [7]: 36%
- tumor volume / tumor growth at 11 days, compound + TRAIL compared with compound alone ([9]; compound 30 mg/kg i.v. plus TRAIL 2.5 mg/kg i.p. daily): significantly reduced
- reduction of average tumor mass, lead compound + TRAIL ([9]; compound 30 mg/kg i.v. plus TRAIL 2.5 mg/kg i.p. daily for 11 days, versus vehicle control): 64.5%
- viability at 24 h, 10 µM ([2]; Huh7, MTT, 10 µM, 24 hrs, Supplementary Table 3, read-out: Cell viability assay Compound only): 69%
- reduction of cell viability of Huh7 cells by co-treatment with TRAIL, compared to TRAIL alone ([4]; 10 μM TRT-0029 or 20 μM TRT-0173 plus TRAIL, 24 h): ~90%
- viability at 10 µM ([4]; Homo sapiens, Huh-7, Huh7, MTT, 10 µM, 24 hrs, with TRAIL, Supplementary Table 3, read-out: Cell viability assay Compound + TRAIL): 11%
- effective working concentration ([4]; Huh7 cells, various doses with and without TRAIL (100 ng/ml), 24 h): 10 µM
